Substitutions are numbered along the chain they refer to.
Columns and labels:
GlyT2 L198A mutant = GlyT2 L198A mutant (Homo sapiens, UniProt Q9Y345, L198A)
Text: (§1) GlyT2a (referred to herein as GlyT2) was subcloned into the plasmid oocyte transcription vector (pOTV) for expression in Xenopus laevis oocytes. Oligonucleotide primers incorporating desired mutations were synthesized by Sigma-Aldrich and used to generate point mutations in the GlyT2 cDNA/pOTV construct using the Q5 site-directed mutagenesis kit (New England Biolabs [Genesearch]). Amplified PCR products were transformed into chemically competent E. coli cells and purified using the GeneJET Plasmid Miniprep Kit (Thermo Fisher Scientific). Purified plasmid DNA was sequence-verified by the Australian Genome Research Facility. pOTV constructs were linearized with the restriction enzyme SpeI (New England Biolabs [Genesearch]), and RNA was transcribed by T7 RNA polymerase using the mMESSAGE mMACHINE T7 kit (Thermo Fisher Scientific).
(§2) The transport activity of GlyT2 is an electrogenic process as it couples the transport of glycine to the co-transport of 3 Na^+ and 1 Cl^− and thus can be measured using two-electrode voltage-clamp electrophysiology. Oocytes expressing GlyTs were voltage-clamped at −60 mV, and glycine-induced whole-cell currents were measured using a GeneClamp 500 amplifier (Axon Instruments), and a PowerLab 2/26 chart recorder (ADInstruments) and LabChart Software (ADInstruments).
(§3) Functionality of WT and mutant GlyT2 transporters was assessed by applying increasing concentrations of glycine (1–3,000 µM) in ND96 until a stable current was achieved. Glycine concentrations were applied individually and completely removed from the system via washing with recording buffer before proceeding to the next concentration. EC50 values for each transporter were determined by fitting concentration–response data to the modified Michaelis–Menten equation: I=([Gly].Imax)/(EC50+[Gly]), where I is current in nA, [Gly] is the concentration of glycine, Imax is the current generated by a maximal concentration of glycine, and EC50 is the concentration of glycine that generates a half-maximal current.

GlyT2 Y430L mutant = molecular target: T1, GlyT2 Y430L mutant (Homo sapiens, UniProt Q9Y345, Y430L); settings: read-out: Glycine EC50; Y430L (TM5)
T1 sequence (Q9Y345 1-797 Y430L): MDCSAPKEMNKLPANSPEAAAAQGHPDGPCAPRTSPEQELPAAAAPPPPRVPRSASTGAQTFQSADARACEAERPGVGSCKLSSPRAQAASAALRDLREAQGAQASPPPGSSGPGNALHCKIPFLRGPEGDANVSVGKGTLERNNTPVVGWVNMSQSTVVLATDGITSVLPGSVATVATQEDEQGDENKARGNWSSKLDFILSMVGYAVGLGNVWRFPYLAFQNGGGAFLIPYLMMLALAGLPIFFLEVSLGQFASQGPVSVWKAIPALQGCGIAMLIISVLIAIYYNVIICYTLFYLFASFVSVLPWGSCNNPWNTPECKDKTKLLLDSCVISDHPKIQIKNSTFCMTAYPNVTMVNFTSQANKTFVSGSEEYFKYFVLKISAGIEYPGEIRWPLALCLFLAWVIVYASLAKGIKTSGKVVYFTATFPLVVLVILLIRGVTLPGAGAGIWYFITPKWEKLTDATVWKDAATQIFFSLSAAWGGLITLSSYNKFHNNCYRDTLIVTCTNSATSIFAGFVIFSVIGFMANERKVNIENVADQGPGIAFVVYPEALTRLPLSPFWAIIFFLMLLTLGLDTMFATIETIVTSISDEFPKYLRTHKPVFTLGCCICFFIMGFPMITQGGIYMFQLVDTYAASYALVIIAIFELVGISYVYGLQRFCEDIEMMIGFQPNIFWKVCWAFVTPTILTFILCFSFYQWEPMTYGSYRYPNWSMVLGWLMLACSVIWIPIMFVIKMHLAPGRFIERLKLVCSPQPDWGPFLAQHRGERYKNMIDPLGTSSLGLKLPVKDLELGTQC
Text: as §1, §2, §3

GlyT2 Y430F mutant = molecular target: T2, GlyT2 Y430F mutant (Homo sapiens, UniProt Q9Y345, Y430F); settings: read-out: Glycine EC50; Y430F (TM5)
T2 sequence (Q9Y345 1-797 Y430F): T1 sequence (Q9Y345 1-797 Y430L) with L430F
Text: as §1, §2, §3

GlyT2 F515V mutant = GlyT2 F515V mutant (Homo sapiens, UniProt Q9Y345, F515V); settings: read-out: Glycine EC50; F515V (TM7)
Sequence of GlyT2 F515V mutant (Q9Y345 whole entry F515V): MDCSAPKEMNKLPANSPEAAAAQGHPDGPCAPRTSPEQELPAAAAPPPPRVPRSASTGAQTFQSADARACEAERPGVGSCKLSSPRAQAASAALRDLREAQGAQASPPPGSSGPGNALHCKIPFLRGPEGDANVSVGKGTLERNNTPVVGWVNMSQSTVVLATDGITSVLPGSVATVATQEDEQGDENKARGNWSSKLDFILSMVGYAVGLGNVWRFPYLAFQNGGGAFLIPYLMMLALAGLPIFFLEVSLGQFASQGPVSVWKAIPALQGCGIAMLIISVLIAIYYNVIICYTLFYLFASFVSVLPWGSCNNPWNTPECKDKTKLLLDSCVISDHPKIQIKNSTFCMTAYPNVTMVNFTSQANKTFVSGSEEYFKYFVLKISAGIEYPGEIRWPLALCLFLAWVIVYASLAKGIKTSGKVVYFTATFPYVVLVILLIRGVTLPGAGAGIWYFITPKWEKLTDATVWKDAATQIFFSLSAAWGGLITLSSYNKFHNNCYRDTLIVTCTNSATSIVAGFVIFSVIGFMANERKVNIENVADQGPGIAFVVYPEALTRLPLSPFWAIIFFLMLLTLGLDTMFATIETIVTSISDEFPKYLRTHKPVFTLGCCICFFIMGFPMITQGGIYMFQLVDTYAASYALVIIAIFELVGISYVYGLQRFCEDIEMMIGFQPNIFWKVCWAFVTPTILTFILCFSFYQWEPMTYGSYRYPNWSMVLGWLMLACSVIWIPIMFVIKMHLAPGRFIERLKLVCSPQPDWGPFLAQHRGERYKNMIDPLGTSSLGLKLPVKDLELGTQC
Text: as §1, §2, §3

Sequence of GlyT2 L198A mutant (Q9Y345 whole entry L198A): as the sequence (Q9Y345 whole entry F515V) above, with L198A, V515F counted along it

In the case of `NCC(=O)O` [Glycine, glycine], the “Increase of glycine EC50 compared to WT” value (GlyT2 L198A mutant; L198A vs WT) is reported as 1.5 fold, the EC50 (GlyT2 L198A mutant; read-out: Glycine EC50, L198A (TM1)) is reported as 28 µM and the EC50 (GlyT2 Y430L mutant) is reported as 19 µM. For the same compound, the EC50 (GlyT2 Y430F mutant) was 12 µM and the EC50 (GlyT2 F515V mutant) was 7.8 µM.
